According to patent US20050192279A1, “Pyridazinones as antagonists of alpha4 integrins” (priority 2004, published 2005):

Experiments:
human α4β7 integrin = biological target: T1, human α4β7 integrin (Homo sapiens, UniProt P13612+P26010); assay: α4β7-K562 Cell Adhesion Assay (α4β7 Mediated Adhesion/MAdCAM-1); format: cell-based; conditions: α4β7-K562 cell adhesion to hMAdCAM-1; read-out: α4β7 IC50
T1 construct: expressed in transfected cells; host or cells: K562 cells, stably transfected
T1 sequence (P13612 34-1032): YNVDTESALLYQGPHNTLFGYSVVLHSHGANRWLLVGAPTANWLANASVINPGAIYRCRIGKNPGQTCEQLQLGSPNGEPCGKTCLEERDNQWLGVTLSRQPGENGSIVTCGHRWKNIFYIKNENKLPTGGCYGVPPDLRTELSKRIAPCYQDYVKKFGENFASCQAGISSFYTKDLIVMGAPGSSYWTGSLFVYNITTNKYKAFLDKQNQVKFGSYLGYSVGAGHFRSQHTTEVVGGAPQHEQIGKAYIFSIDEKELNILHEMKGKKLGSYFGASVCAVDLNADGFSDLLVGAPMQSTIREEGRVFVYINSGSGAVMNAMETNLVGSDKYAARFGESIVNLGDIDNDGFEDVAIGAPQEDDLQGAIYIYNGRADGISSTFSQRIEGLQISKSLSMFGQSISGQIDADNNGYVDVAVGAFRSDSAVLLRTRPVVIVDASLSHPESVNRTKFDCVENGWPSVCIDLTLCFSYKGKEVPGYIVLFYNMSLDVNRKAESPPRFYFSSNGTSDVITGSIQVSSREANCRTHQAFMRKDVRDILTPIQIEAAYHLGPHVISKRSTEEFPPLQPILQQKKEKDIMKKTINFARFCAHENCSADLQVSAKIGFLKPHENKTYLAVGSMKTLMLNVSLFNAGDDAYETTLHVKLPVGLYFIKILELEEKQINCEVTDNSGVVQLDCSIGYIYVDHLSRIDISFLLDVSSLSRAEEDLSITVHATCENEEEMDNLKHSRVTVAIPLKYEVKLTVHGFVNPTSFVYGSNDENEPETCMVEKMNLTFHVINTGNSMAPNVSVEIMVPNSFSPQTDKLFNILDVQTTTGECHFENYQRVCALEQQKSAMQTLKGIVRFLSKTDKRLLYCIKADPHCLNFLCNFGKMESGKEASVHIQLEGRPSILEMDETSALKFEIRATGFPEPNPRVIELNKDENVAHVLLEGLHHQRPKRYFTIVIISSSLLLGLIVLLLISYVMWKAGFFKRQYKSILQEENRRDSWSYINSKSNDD
T1 sequence (P26010 20-798): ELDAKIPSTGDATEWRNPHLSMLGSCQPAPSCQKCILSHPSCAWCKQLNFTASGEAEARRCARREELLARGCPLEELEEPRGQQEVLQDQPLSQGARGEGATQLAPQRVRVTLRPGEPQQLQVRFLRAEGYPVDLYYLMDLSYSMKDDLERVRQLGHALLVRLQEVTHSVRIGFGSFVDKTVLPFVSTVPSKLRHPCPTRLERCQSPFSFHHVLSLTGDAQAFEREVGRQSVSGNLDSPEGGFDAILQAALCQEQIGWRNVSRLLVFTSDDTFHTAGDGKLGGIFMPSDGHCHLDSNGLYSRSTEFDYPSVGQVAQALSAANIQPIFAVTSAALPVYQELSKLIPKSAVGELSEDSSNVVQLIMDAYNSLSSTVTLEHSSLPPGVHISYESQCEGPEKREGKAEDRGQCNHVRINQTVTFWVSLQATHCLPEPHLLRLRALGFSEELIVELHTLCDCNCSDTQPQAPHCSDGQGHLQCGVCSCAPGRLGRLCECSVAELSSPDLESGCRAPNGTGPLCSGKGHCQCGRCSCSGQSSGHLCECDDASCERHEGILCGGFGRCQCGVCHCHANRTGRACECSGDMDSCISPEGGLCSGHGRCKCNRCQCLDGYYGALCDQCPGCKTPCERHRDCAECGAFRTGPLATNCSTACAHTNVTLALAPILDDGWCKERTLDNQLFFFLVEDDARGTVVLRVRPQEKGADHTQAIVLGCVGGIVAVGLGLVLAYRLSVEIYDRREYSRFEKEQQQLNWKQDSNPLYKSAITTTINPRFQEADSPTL
Procedure: α4β7-K562 Cell Adhesion Assay (α4β7 Mediated Adhesion/MAdCAM-1)
M2 anti-FLAG Antibody Coated 96-well plates (Sigma) were coated for 1 hour at 4° C. with 2-8 μl/well recombinant FLAG-hMAdCAM-1 contained in 100 μL of Dulbecco's PBS, pH 7.4, with 1% BSA and 1 mM Mn ^+2 (PBS-BSA-Mn). Plates were washed once with PBS-BSA-Mn. Buffer was removed and compounds to be tested (50 μL) were added at 2× concentration. Stably transfected K562 cells expressing human α4β7 integrin, (50 μL at 2×10^6/mL) that had been labeled with 100 μg/ml carboxymethyl fluorescein diacetate succinimidyl ester (CFDA-SE; Molecular Probes) for 15 min at 37° C. were added to each well and allowed to adhere for 1 h at room temperature. Plates were washed 4× in PBS-BSA-Mn and then cells were lysed for 2 minutes by addtion of 100 μL of PBS without Ca, Mg supplemented with 0.1 M NaOH.

α4β1 = biological target: T2, α4β1 (Homo sapiens, UniProt P05556+P13612); assay: Ramos Cell Adhesion Assay (α4β1 Mediated Adhesion/VCAM-1); format: cell-based; conditions: Ramos cell adhesion to hVCAM-1; read-out: α4β1 IC50
T2 construct: Ramos Cell Adhesion Assay (α4β1 Mediated Adhesion/VCAM-1); endogenous in cells; host or cells: Ramos cells
T2 sequence (P05556 21-798, one chain of several): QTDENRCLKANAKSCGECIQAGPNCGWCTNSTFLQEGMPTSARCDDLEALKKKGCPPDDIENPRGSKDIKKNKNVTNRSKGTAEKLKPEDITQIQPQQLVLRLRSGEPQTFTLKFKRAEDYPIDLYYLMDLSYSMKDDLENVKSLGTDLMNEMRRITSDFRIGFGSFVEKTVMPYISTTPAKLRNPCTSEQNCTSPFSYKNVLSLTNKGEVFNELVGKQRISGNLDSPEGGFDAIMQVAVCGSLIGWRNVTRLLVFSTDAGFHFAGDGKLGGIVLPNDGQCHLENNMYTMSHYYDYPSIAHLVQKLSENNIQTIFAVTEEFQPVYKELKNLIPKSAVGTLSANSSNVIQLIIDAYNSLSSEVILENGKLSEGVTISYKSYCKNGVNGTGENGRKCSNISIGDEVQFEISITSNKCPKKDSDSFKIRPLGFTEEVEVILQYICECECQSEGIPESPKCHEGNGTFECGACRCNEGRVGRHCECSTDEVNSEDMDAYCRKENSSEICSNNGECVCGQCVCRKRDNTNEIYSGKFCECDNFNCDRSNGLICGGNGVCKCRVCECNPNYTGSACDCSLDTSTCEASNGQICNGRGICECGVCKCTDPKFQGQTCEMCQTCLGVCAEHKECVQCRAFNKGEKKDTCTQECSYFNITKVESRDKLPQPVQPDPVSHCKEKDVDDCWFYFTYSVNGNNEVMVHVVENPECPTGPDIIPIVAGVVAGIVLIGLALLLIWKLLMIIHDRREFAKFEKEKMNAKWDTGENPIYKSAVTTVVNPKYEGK
Procedure: Ramos Cell Adhesion Assay (α4β1 Mediated Adhesion/VCAM-1)
Immulon 96 well plates (Dynex) were coated with 100 μL recombinant hVCAM-1 at 4.0 μg/mL in 0.05 M NaCO3 buffer pH 9.0 overnight at 4° C. (R&D Systems). Plates were washed 2 times in PBS with 1% BSA and blocked for 1 h @ room temperature in this buffer. PBS was removed and compounds to be tested (50 μL) were added at 2× concentration. Ramos cells, (50 μL at 2×10^6/mL) labeled with 5 μM Calcein AM (Molecular Probes) for 1 h at 37° C., were added to each well and allowed to adhere for 1 h at room temperature. Plates were washed 4× in PBS+1% BSA and cells were lysed for 15 minutes in 100 μL of 1 M Tris pH 8.0 with 1% SDS.

C=CCNc1cnn(CC(C)=O)c(=O)c1-c1ccc(C[C@H](NC(=O)c2c(Cl)cccc2Cl)C(=O)O)cc1 [Cpd 36]
IC50 (human α4β7 integrin): 9 nM | IC50 (α4β1): 1310 nM

Cn1ncc(OCC(F)(F)F)c(-c2ccc(C[C@H](NC(=O)c3c(Cl)cccc3Cl)C(=O)O)cc2)c1=O [Cpd 37]
IC50 (human α4β7 integrin): 9 nM | IC50 (α4β1): 474 nM

COc1cnn(C)c(=O)c1-c1ccc(C[C@H](NC(=O)C2(C(N)=O)CC2)C(=O)O)cc1 [Cpd 38]
IC50 (human α4β7 integrin): 9 nM | IC50 (α4β1): > 5000 nM

COc1cnn(CC(F)(F)F)c(=O)c1-c1ccc(C[C@H](NC(=O)c2c(Cl)cccc2Cl)C(=O)O)cc1 [Cpd 39]
IC50 (human α4β7 integrin): 10 nM | IC50 (α4β1): 588 nM

COc1cnn(C)c(=O)c1-c1ccc(C[C@H](NC(=O)C2(NC3CCCCC3)CC2)C(=O)O)cc1 [Cpd 40]
IC50 (human α4β7 integrin): 38 nM | IC50 (α4β1): > 5000 nM

Cn1ncc(OC2CCCCC2)c(-c2ccc(C[C@H](NC(=O)c3c(Cl)cccc3Cl)C(=O)O)cc2)c1=O [Cpd 41]
IC50 (human α4β7 integrin): 11 nM | IC50 (α4β1): 152 nM

COc1cnn(C)c(=O)c1-c1ccc(C[C@H](NC(=O)C2(NC(C)C)CCOCC2)C(=O)O)cc1 [Cpd 42]
IC50 (human α4β7 integrin): 59 nM | IC50 (α4β1): 936 nM

O=C(N[C@@H](Cc1ccc(-c2c(OC3CCCC3)cnn(CCO)c2=O)cc1)C(=O)O)c1c(Cl)cccc1Cl [Cpd 43]
IC50 (human α4β7 integrin): 12 nM | IC50 (α4β1): 437 nM

COc1cnn(C)c(=O)c1-c1ccc(C[C@H](NC(=O)[C@H](C(C)C)N(C)C(=O)OC(C)(C)C)C(=O)O)cc1 [Cpd 48]
IC50 (human α4β7 integrin): 13 nM | IC50 (α4β1): 974 nM

Cn1ncc(Cl)c(-c2ccc(C[C@H](NC(=O)c3c(Cl)cccc3Cl)C(=O)O)cc2)c1=O [Cpd 49]
IC50 (human α4β7 integrin): 14 nM | IC50 (α4β1): 486 nM

COc1cnn(C)c(=O)c1-c1ccc(C[C@H](NC(=O)[C@@H](C)N(C)C(=O)Cc2ccsc2)C(=O)O)cc1 [Cpd 50]
IC50 (human α4β7 integrin): 14 nM | IC50 (α4β1): 229 nM

Cn1ncc(N2CCCC2)c(-c2ccc(C[C@H](NC(=O)c3c(Cl)cccc3Cl)C(=O)O)cc2)c1=O [Cpd 51]
IC50 (human α4β7 integrin): 16 nM | IC50 (α4β1): 113 nM

Cn1ncc(OCc2ccccc2)c(-c2ccc(C[C@H](NC(=O)c3c(Cl)cccc3Cl)C(=O)O)cc2)c1=O [Cpd 52]
IC50 (human α4β7 integrin): 17 nM | IC50 (α4β1): 663 nM

O=C(N[C@@H](Cc1ccc(-c2c(OC3CCC3)cnn(CCO)c2=O)cc1)C(=O)O)c1c(Cl)cccc1Cl [Cpd 53]
IC50 (human α4β7 integrin): 17 nM | IC50 (α4β1): 269 nM

COc1cnn(-c2ccccc2)c(=O)c1-c1ccc(C[C@H](NC(=O)c2c(Cl)cccc2Cl)C(=O)O)cc1 [Cpd 56]
IC50 (human α4β7 integrin): 18 nM | IC50 (α4β1): 3860 nM

Cn1ncc(OC2CCCC2)c(-c2ccc(C[C@H](NC(=O)c3c(Cl)cccc3Cl)C(=O)O)cc2)c1=O [Cpd 60]
IC50 (human α4β7 integrin): 20 nM | IC50 (α4β1): 155 nM

Cn1ncc(O)c(-c2ccc(C[C@H](NC(=O)c3c(Cl)cncc3Cl)C(=O)O)cc2)c1=O [Cpd 62]
IC50 (human α4β7 integrin): 21 nM | IC50 (α4β1): 40 nM

CS(=O)(=O)c1ccc(-c2cnn(CC3CC3)c(=O)c2-c2ccc(C[C@H](NC(=O)c3c(Cl)cccc3Cl)C(=O)O)cc2)cc1 [Cpd 65]
IC50 (human α4β7 integrin): 21 nM | IC50 (α4β1): 4220 nM

CN[C@H](C(=O)N[C@@H](Cc1ccc(-c2c(OC)cnn(C)c2=O)cc1)C(=O)O)[C@@H](C)OCc1ccccc1 [Cpd 68]
IC50 (human α4β7 integrin): 24 nM | IC50 (α4β1): 473 nM

CN1CCC(Oc2cnn(CCO)c(=O)c2-c2ccc(C[C@H](NC(=O)c3c(Cl)cccc3Cl)C(=O)O)cc2)C1 (stereo partly shown) [Cpd 72]
IC50 (human α4β7 integrin): 26 nM | IC50 (α4β1): 190 nM

CC(C)Oc1cnn(C)c(=O)c1-c1ccc(C[C@H](NC(=O)c2c(Cl)cccc2Cl)C(=O)O)cc1 [Cpd 74]
IC50 (human α4β7 integrin): 27 nM | IC50 (α4β1): 135 nM

COc1cnn(C)c(=O)c1-c1ccc(C[C@H](NC(=O)c2c(Cl)cccc2Cl)C(=O)OCCCl)cc1 [Cpd 75]
IC50 (human α4β7 integrin): 28 nM | IC50 (α4β1): > 5000 nM

CSc1cnn(C(C)(C)C)c(=O)c1-c1ccc(C[C@H](NC(=O)c2c(Cl)cccc2Cl)C(=O)O)cc1 [Cpd 78]
IC50 (human α4β7 integrin): 36 nM | IC50 (α4β1): 5610 nM

COc1cnn(C)c(=O)c1-c1ccc(C[C@H](NC(=O)C2(n3c(C)ccc3C)CC2)C(=O)O)cc1 [Cpd 80]
IC50 (human α4β7 integrin): 228 nM | IC50 (α4β1): > 5000 nM

COc1cnn(C)c(=O)c1-c1ccc(C[C@H](NC(=O)[C@H](NC(=O)OC(C)(C)C)C(C)C)C(=O)O)cc1 [Cpd 81, (R)-2-(2-tert-Butoxycarbonylamino-3-methyl-butyrylamino)-3-(S)-[4-(5-methoxy-2-methyl-3-oxo-2,3-dihydro-pyridazin-4-yl)-phenyl]-propionic acid]
IC50 (human α4β7 integrin): 39 nM | IC50 (α4β1): 987 nM

COc1cn[nH]c(=O)c1-c1ccc(C[C@H](NC(=O)c2c(Cl)cccc2Cl)C(=O)O)cc1 [Cpd 83]
IC50 (human α4β7 integrin): 41 nM | IC50 (α4β1): 1020 nM

COc1cnn(C)c(=O)c1-c1ccc(C[C@H](NC(=O)c2ccc[nH]2)C(=O)O)cc1 [Cpd 84]
IC50 (human α4β7 integrin): 41 nM | IC50 (α4β1): > 5000 nM

COc1cnn(C(C)(C)C)c(=O)c1-c1ccc(C[C@H](NC(=O)c2c(Cl)cccc2Cl)C(=O)O)cc1 [Cpd 85]
IC50 (human α4β7 integrin): 42 nM | IC50 (α4β1): 794 nM

Cn1ncc(OCC2CC2)c(-c2ccc(C[C@H](NC(=O)c3c(Cl)cccc3Cl)C(=O)O)cc2)c1=O [Cpd 86, (S)-3-[4-(5-Cyclopropylmethoxy-2-methyl-3-oxo-2,3-dihydro-pyridazin-4-yl)-phenyl]-2-(2,6-dichloro-benzoylamino)-propionic acid]
IC50 (human α4β7 integrin): 44 nM | IC50 (α4β1): 212 nM

COc1cnn(C)c(=O)c1-c1ccc(CC(NC(=O)C(C(C)C)n2cccc2)C(=O)O)cc1 (stereo not shown) [Cpd 87, 3-[4-(5-Methoxy-2-methyl-3-oxo-2,3-dihydro-pyridazin-4-yl)-phenyl]-2-(3-methyl-2-pyrrol-1-yl-butyrylamino)-propionic acid]
IC50 (human α4β7 integrin): 44 nM | IC50 (α4β1): 278 nM

O=C(N[C@@H](Cc1ccc(-c2c(-n3ncc4ccccc43)cnn(CCO)c2=O)cc1)C(=O)O)c1c(Cl)cccc1Cl [Cpd 88]
IC50 (human α4β7 integrin): 46 nM | IC50 (α4β1): 1040 nM

COc1cnn(C)c(=O)c1-c1ccc(C[C@H](NC(=O)[C@@H](C(C)C)N(C)C(=O)CCc2ccccc2)C(=O)O)cc1 [Cpd 90]
IC50 (human α4β7 integrin): 48 nM | IC50 (α4β1): 4500 nM
